Results taken from patent publication US20230303672A1, “METASTATIC CANCER TREATMENT OR PREVENTION” (OXFORD BROOKES UNIVERSITY, priority 2020, published 2023).

Columns and labels:
[1] = system: HPA-positive BC cells binding to endothelial cells; details: incubating cells with HPA or BSA-GalNAc; 'It has been shown'; cited from earlier work
[2] = system: MCF7 (metastatic) cells adhering to endothelial cells; experiment: Endothelial static adhesion assay with or without antibodies and peptides; format: cell-based; details: peptide and corresponding peptide conjugate; compared to BT474 (non-metastatic) cells; 12 replicates; FIG. 15
Experimental: MCF7 and HUVEC cells were grown in 24 well cell culture plates to 70% confluency the cells were treated with Dharmafect™ transfection reagent and 5 uM of plectin siRNAs or scrambled negative control for 24 hrs. Some HUVEC and MCF7 cells were non-treated. HUVEC cells were activated by treating with 10 ug/ml TNFa in complete medium for 2 hrs at 37° C., 5% CO2. MCF7 breast cancer cells were grown in T75 flasks until 70% confluency and treated with 10 mg/ml HTPS in complete medium for 2 hrs at 37° C., 5% CO2. HTPS was removed and cells were washed with 10 ml of PBS 5 times until the wash ran clear. Cells were scraped and counted. 20,000 cells/ml was prepared. MCF7 cells were treated with either 500 ul of EVs isolated using the extraction method outlined above, or 500 ul of PBS for 10 mins at RT. EVs or PBS was removed and 1 ml of MCF7 cells were added to HUVEC cells and incubated at 37° C., 5% CO2 for 10 mins, before cells were removed and wells gently washed with warmed PBS to remove any unbound cells. Wells were then fixed with 4% PFA for 10 mins at RT. Fixative was removed and the wells washed 3 times with PBS and then coverslips were mounted using fluoromount. Total adhered cells per coverslip were counted.
This was as above but using 1/1000 of stock antibodies and peptides stated below.

[3] = system: MCF7 breast cancer cell adhesion to endothelial cells (HUVEC); experiment: Endothelial static adhesion assay with recombinant plectin; format: cell-based; details: MCF7 treated with 0.1 ug/ml recombinant plectin for 10 mins, compared to untreated, FIG. 6
Experimental: Coverslips with activated endothelial cells were prepared as above. MCF7 breast cancer cells were grown in T75 flasks until 70% confluency and treated with 10 mg/ml HTPS in complete medium for 2 hrs at 37° C., 5% CO2. HTPS was removed and cells were washed with 10 ml of PBS 5 times until the wash ran clear. Cells were scraped and counted. 20,000 cells/ml was prepared. MCF7 cells were treated with either 0.1 ug/ml recombinant plectin, (2b Scientific SKU RPC754Hu01 (residues Asp 175-Pro 400 (SEQ ID NO: 1) of human plectin Uniprot ID Q15149, corresponding to the actin-binding domain), in PBS or PBS for 10 mins at RT. Recombinant plectin or PBS were removed from cells and 20,000 cells/ml of MCF7 cells were added per well and incubated for 10 mins, cells were removed and wells gently washed with warmed PBS to remove any unbound cells. Wells were then fixed with 4% PFA for 10 mins at RT. Fixative was removed and the wells washed 3 times with PBS and then coverslips were mounted using fluoromount. Total adhered cells per coverslip were counted.
Sterilised 13 mm D glass coverslips were placed in wells of 24 well plate and 100,000 HUVEC cells were seeded. Cells were incubated at 37° C. with 5% CO2 atmosphere until cells became a monolayer. HUVEC cells were activated by treating with 10 ug/ml TNFa in complete medium for 2 hrs at 37° C., 5% CO2.

Molecule: BSA-GalNAc: GalNAc sugar conjugated to BSA
- BC cell binding to endothelial cells [1]: inhibits cells binding

Molecule: AVIYGGVQ [SEQ7]
- MCF7 (metastatic) cells binding to endothelial cells (peptide) [2]: specifically reduces MCF7 (metastatic) cells binding to endothelial cells in a concentration dependant manner

B1: recombinant plectin: 2b Scientific RPC754Hu01, residues Asp 175-Pro 400 (SEQ ID NO: 1) of human plectin, the actin-binding domain (protein, listed as Homo sapiens)
chain: DERDRVQKKTFTKWVNKHLIKAQRHISDLYEDLRDGHNLISLLEVLSGDSLPREKGRMRFHKLQNVQIALDYLRHRQVKLVNIRNDDIADGNPKLTLGLIWTIILHFQISDIQVSGQSEDMTAKEKLLLWSQRMVEGYQGLRCDNFTSSWRDGRLFNAIIHRHKPLLIDMNKVYRQTNLENLDQAFSVAERDLGVTRLLDPEDVDVPQPDEKSIITYVSSLYDAMP
- Cell adhesion of MCF7 to endothelial cells [3]: significantly decreases
- Cell adhesion of MCF7 to endothelial cells ([3]; listed as recombinant plectin fragment): significantly reduced
